Test results published in patent US20230085307A1, “PYRIDAZINONE COMPOUND AND HERBICIDE” (NISSAN CHEMICAL CORPORATION, priority 2019, published 2023).

How the values were obtained:
late watergrass = experiment: Test Example 1: herbicidal activity, application before weed generation under submerged conditions (Table 16, symbol A); type: in vivo, late watergrass (Echinochloa oryzicola); conditions: amount of applied herbicide 320 g/ha
Method in brief: (§1)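 Alluvial soil was flooded to 4 cm depth, weed seeds were sown mixed and 2.5-leaf rice seedlings were transplanted. On sowing day, the compound's emulsion, diluted in water to a set dose, was applied to the water surface. Plants grew at 25–30 °C and were scored 0–5 after three weeks.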

Japanese bulrush [1] = experiment: Test Example 1: herbicidal activity, application before weed generation under submerged conditions (Table 16, symbol B); type: in vivo, Japanese bulrush (Schoenoplectus juncoides); conditions: amount of applied herbicide 320 g/ha
Method in brief: as §1

Japanese bulrush [2] = experiment: Test Example 2: herbicidal activity, application during weed generation under submerged conditions (Table 17, symbol B); type: in vivo, Japanese bulrush (Schoenoplectus juncoides); conditions: AAH 320 g/ha; application during weed generation, submerged conditions
Method in brief: (§2)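 Wagner pot, alluvial soil, 4 cm flood; mixed sowing of all species; greenhouse 25° C.–30° C. Emulsifiable formulation, water-diluted to predetermined dose, applied to paddy water at 1–2 leaf stage. Effect rated at 3 wk using the earlier test's scoring criteria.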

green foxtail [3] = experiment: Test Example 4: herbicidal effect by soil treatment (Table 19, symbol G); type: in vivo, green foxtail (Setaria viridis); conditions: amount of applied herbicide 320 g/ha
Method in brief: (§3)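 Three weeks of greenhouse growth at 25° C. to 30° C. followed a uniform surface spray of water-diluted emulsion at a predetermined herbicide amount. Seeds had been sown beforehand under about 1.5 cm of sterilized diluvial soil. Grading followed criteria set out in an earlier test.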

wild oat [4] = experiment: Test Example 4: herbicidal effect by soil treatment (Table 19, symbol I); type: in vivo, wild oat (Avena fatua); conditions: amount of applied herbicide 320 g/ha
Method in brief: as §3

blackgrass [5] = experiment: Test Example 4: herbicidal effect by soil treatment (Table 19, symbol J); type: in vivo, blackgrass (Alopecurus myosuroides); conditions: amount of applied herbicide 320 g/ha
Method in brief: as §3

Italian ryegrass [6] = experiment: Test Example 4: herbicidal effect by soil treatment (Table 19, symbol K); type: in vivo, Italian ryegrass (Lolium multiflorum); conditions: amount of applied herbicide 320 g/ha
Method in brief: as §3

velvetleaf [7] = experiment: Test Example 4: herbicidal effect by soil treatment (Table 19, symbol M); type: in vivo, velvetleaf (Abutilon theophrasti); conditions: amount of applied herbicide 320 g/ha
Method in brief: as §3

redroot pigweed = experiment: Test Example 4: herbicidal effect by soil treatment (Table 19, symbol N); type: in vivo, redroot pigweed (Amaranthus retroflexus); conditions: amount of applied herbicide 320 g/ha
Method in brief: as §3

lambsquarters = experiment: Test Example 4: herbicidal effect by soil treatment (Table 19, symbol O); type: in vivo, lambsquarters (Chenopodium album); conditions: amount of applied herbicide 320 g/ha
Method in brief: as §3

persian speedwell = experiment: Test Example 4: herbicidal effect by soil treatment (Table 19, symbol R); type: in vivo, Persian speedwell (Veronica persica); conditions: amount of applied herbicide 320 g/ha
Method in brief: as §3

southern crabgrass = experiment: Test Example 5: herbicidal effect by foliage application, plastic box (Table 20, symbol F); type: in vivo, southern crabgrass (Digitaria ciliaris); conditions: 320 g/ha
Method in brief: (§4)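 Plants sown in sterilized diluvial soil and grown 14 days in a greenhouse at 25° C to 30° C, then sprayed on the foliage with the compound's emulsion diluted in water to a predetermined herbicide amount. Injury to weeds and crops scored three weeks after application on a visual rating scale.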

green foxtail [8] = experiment: Test Example 5: herbicidal effect by foliage application, plastic box (Table 20, symbol G); type: in vivo, green foxtail (Setaria viridis); conditions: 320 g/ha
Method in brief: as §4

barnyard grass = experiment: Test Example 5: herbicidal effect by foliage application, plastic box (Table 20, symbol H); type: in vivo, barnyard grass (Echinochloa crus-galli); conditions: 320 g/ha
Method in brief: as §4

wild oat [9] = experiment: Test Example 5: herbicidal effect by foliage application, plastic box (Table 20, symbol I); type: in vivo, wild oat (Avena fatua); conditions: 320 g/ha
Method in brief: as §4

Italian ryegrass [10] = experiment: Test Example 5: herbicidal effect by foliage application, plastic box (Table 20, symbol K); type: in vivo, Italian ryegrass (Lolium multiflorum); conditions: 320 g/ha
Method in brief: as §4

windgrass = experiment: Test Example 5: herbicidal effect by foliage application, plastic box (Table 20, symbol L); type: in vivo, windgrass (Apera spica-venti); conditions: 320 g/ha
Method in brief: as §4

velvetleaf [11] = experiment: Test Example 5: herbicidal effect by foliage application, plastic box (Table 20, symbol M); type: in vivo, velvetleaf (Abutilon theophrasti); conditions: 320 g/ha
Method in brief: as §4

chickweed = experiment: Test Example 5: herbicidal effect by foliage application, plastic box (Table 20, symbol P); type: in vivo, common chickweed (Stellaria media); conditions: 320 g/ha; for P: chickweed, herbicidal effect grade: foliage application, three weeks after application
Method in brief: as §4

oval-leafed pondweed = experiment: Test Example 2: herbicidal activity, application during weed generation under submerged conditions (Table 17, symbol C); type: in vivo, oval-leafed pondweed (Monochoria vaginalis); conditions: AAH 320 g/ha; application during weed generation, submerged conditions
Method in brief: as §2

blackgrass [12] = experiment: Test Example 5: herbicidal effect by foliage application, plastic box (Table 20, symbol J); type: in vivo, blackgrass (Alopecurus myosuroides); conditions: foliage application, 320 g/ha, three weeks after application
Method in brief: as §4

[13] = foliage application after 14-day growth, evaluated three weeks after application
[14] = foliage application, three weeks after application

Row | Structure (SMILES) | Herbicidal effect, A: late watergrass (late watergrass) | Herbicidal effect, B: Japanese bulrush (Japanese bulrush [1]) | herbicidal effect rating, B: Japanese bulrush (Japanese bulrush [2]) | herbicidal effect rating, C: oval-leafed pondweed (oval-leafed pondweed) | G: green foxtail, herbicidal effect grade (green foxtail [3]) | I: wild oat, herbicidal effect grade (wild oat [4]) | J: blackgrass, herbicidal effect grade (blackgrass [5]) | K: Italian ryegrass, herbicidal effect grade (Italian ryegrass [6]) | M: velvetleaf, herbicidal effect grade (velvetleaf [7]) | N: redroot pigweed, herbicidal effect grade (redroot pigweed) | O: lambsquarters, herbicidal effect grade (lambsquarters) | F: southern crabgrass, herbicidal effect grade (southern crabgrass; [14]) | G: green foxtail, herbicidal effect grade (green foxtail [8]; [14]) | H: barnyard grass, herbicidal effect grade (barnyard grass; [14]) | I: wild oat, herbicidal effect grade (wild oat [9]; [14]) | J: blackgrass, herbicidal effect grade (blackgrass [12]) | K: Italian ryegrass, herbicidal effect grade (Italian ryegrass [10]; [14]) | L: windgrass, herbicidal effect grade (windgrass; [14]) | M: velvetleaf, herbicidal effect grade (velvetleaf [11]; [14]) | P: chickweed, herbicidal effect grade (chickweed) | other results
1 | CCCC(=O)Oc1c(C)nn(C)c(=O)c1-c1c(-c2ccc(C#N)cc2)sc2c(F)cccc12 [4-053] | 5 (Herbicidal rate of 90% or more (almost completely withered)) | 3 (Herbicidal rate of 40% or more and less than 70%) | 2 (Herbicidal rate of 20% or more and less than 40%) | – | – | – | – | – | – | – | – | – | – | – | – | – | – | – | – | – | Herbicidal effect by soil treatment, G: green foxtail (green foxtail [3]): 2 (Herbicidal rate of 20% or more and less than 40%); Herbicidal effect by soil treatment, I: wild oat (wild oat [4]): 0 (Herbicidal rate of 5% or less (almost no effect)); Herbicidal effect by soil treatment, J: blackgrass (blackgrass [5]): 0 (Herbicidal rate of 5% or less (almost no effect)); Herbicidal effect by soil treatment, K: Italian ryegrass (Italian ryegrass [6]): 4 (Herbicidal rate of 70% or more and less than 90%); Herbicidal effect by soil treatment, M: velvetleaf (velvetleaf [7]): 2 (Herbicidal rate of 20% or more and less than 40%); Herbicidal effect by soil treatment, N: redroot pigweed (redroot pigweed): 5 (Herbicidal rate of 90% or more (almost completely withered)); Herbicidal effect by soil treatment, O: lambsquarters (lambsquarters): 3 (Herbicidal rate of 40% or more and less than 70%); Herbicidal effect by soil treatment, R: persian speedwell (persian speedwell): 5 (Herbicidal rate of 90% or more (almost completely withered)); herbicidal effect on F: southern crabgrass (evaluation grade 0-5) (southern crabgrass; [13]): 0 (Herbicidal rate of 5% or less (almost no effect)); herbicidal effect on G: green foxtail (evaluation grade 0-5) (green foxtail [8]; [13]): 0 (Herbicidal rate of 5% or less (almost no effect)); herbicidal effect on H: barnyard grass (evaluation grade 0-5) (barnyard grass; [13]): 2 (Herbicidal rate of 20% or more and less than 40%); herbicidal effect on I: wild oat (evaluation grade 0-5) (wild oat [9]; [13]): 2 (Herbicidal rate of 20% or more and less than 40%); herbicidal effect on K: Italian ryegrass (evaluation grade 0-5) (Italian ryegrass [10]; [13]): 4 (Herbicidal rate of 70% or more and less than 90%); herbicidal effect on L: windgrass (evaluation grade 0-5) (windgrass; [13]): 4 (Herbicidal rate of 70% or more and less than 90%); herbicidal effect on M: velvetleaf (evaluation grade 0-5) (velvetleaf [11]; [13]): 5 (Herbicidal rate of 90% or more (almost completely withered)); herbicidal effect on P: chickweed (evaluation grade 0-5) (chickweed; [13]): 5 (Herbicidal rate of 90% or more (almost completely withered))
2 | COc1ccccc1-c1sc2cc(OCC3CC3(F)F)ccc2c1-c1c(O)c(C)nn(C)c1=O (stereo not drawn) [3-131] | 5 (Herbicidal rate of 90% or more (almost completely withered)) | 5 (Herbicidal rate of 90% or more (almost completely withered)) | 3 (Herbicidal rate of 40% or more and less than 70%) | 5 (Herbicidal rate of 90% or more (almost completely withered)) | 4 (Herbicidal rate of 70% or more and less than 90%) | 3 (Herbicidal rate of 40% or more and less than 70%) | 4 (Herbicidal rate of 70% or more and less than 90%) | 5 (Herbicidal rate of 90% or more (almost completely withered)) | 3 (Herbicidal rate of 40% or more and less than 70%) | 5 (Herbicidal rate of 90% or more (almost completely withered)) | 5 (Herbicidal rate of 90% or more (almost completely withered)) | 5 (Herbicidal rate of 90% or more (almost completely withered)) | 5 (Herbicidal rate of 90% or more (almost completely withered)) | 5 (Herbicidal rate of 90% or more (almost completely withered)) | 5 (Herbicidal rate of 90% or more (almost completely withered)) | 5 (Herbicidal rate of 90% or more (almost completely withered)) | 5 (Herbicidal rate of 90% or more (almost completely withered)) | 5 (Herbicidal rate of 90% or more (almost completely withered)) | 4 (Herbicidal rate of 70% or more and less than 90%) | 5 (Herbicidal rate of 90% or more (almost completely withered)) | –
3 | CCCC(=O)Oc1c(C)nn(C)c(=O)c1-c1c(-c2ccc(F)cc2OC)sc2cc(F)ccc12 [3-010] | 5 (Herbicidal rate of 90% or more (almost completely withered)) | 4 (Herbicidal rate of 70% or more and less than 90%) | – | 4 (Herbicidal rate of 70% or more and less than 90%) | – | – | – | – | – | – | – | 3 (Herbicidal rate of 40% or more and less than 70%) | 5 (Herbicidal rate of 90% or more (almost completely withered)) | 5 (Herbicidal rate of 90% or more (almost completely withered)) | 5 (Herbicidal rate of 90% or more (almost completely withered)) | 5 (Herbicidal rate of 90% or more (almost completely withered)) | 4 (Herbicidal rate of 70% or more and less than 90%) | 5 (Herbicidal rate of 90% or more (almost completely withered)) | 5 (Herbicidal rate of 90% or more (almost completely withered)) | 5 (Herbicidal rate of 90% or more (almost completely withered)) | herbicidal effect, G: green foxtail (green foxtail [3]): 3 (Herbicidal rate of 40% or more and less than 70%); herbicidal effect, I: wild oat (wild oat [4]): 4 (Herbicidal rate of 70% or more and less than 90%); herbicidal effect, J: blackgrass (blackgrass [5]): 4 (Herbicidal rate of 70% or more and less than 90%); herbicidal effect, K: Italian ryegrass (Italian ryegrass [6]): 4 (Herbicidal rate of 70% or more and less than 90%); herbicidal effect, M: velvetleaf (velvetleaf [7]): 0 (Herbicidal rate of 5% or less (almost no effect)); herbicidal effect, N: redroot pigweed (redroot pigweed): 5 (Herbicidal rate of 90% or more (almost completely withered)); herbicidal effect, O: lambsquarters (lambsquarters): 5 (Herbicidal rate of 90% or more (almost completely withered)); herbicidal effect, R: persian speedwell (persian speedwell): 5 (Herbicidal rate of 90% or more (almost completely withered))
4 | COc1cc(F)ccc1-c1sc2cc(C)c(C)cc2c1-c1c(O)c(C)nn(C)c1=O [5-101] | 3 (Herbicidal rate of 40% or more and less than 70%) | 3 (Herbicidal rate of 40% or more and less than 70%) | 2 (Herbicidal rate of 20% or more and less than 40%) | 2 (Herbicidal rate of 20% or more and less than 40%) | 0 (Herbicidal rate of 5% or less (almost no effect)) | 0 (Herbicidal rate of 5% or less (almost no effect)) | 0 (Herbicidal rate of 5% or less (almost no effect)) | 4 (Herbicidal rate of 70% or more and less than 90%) | 0 (Herbicidal rate of 5% or less (almost no effect)) | 1 (Herbicidal rate of 5% or more and less than 20%) | 2 (Herbicidal rate of 20% or more and less than 40%) | – | – | – | – | – | – | – | – | – | herbicidal effect on southern crabgrass (F) (southern crabgrass; [14]): 4 (Herbicidal rate of 70% or more and less than 90%); herbicidal effect on green foxtail (G) (green foxtail [8]; [14]): 4 (Herbicidal rate of 70% or more and less than 90%); herbicidal effect on barnyard grass (H) (barnyard grass; [14]): 3 (Herbicidal rate of 40% or more and less than 70%); herbicidal effect on wild oat (I) (wild oat [9]; [14]): 0 (Herbicidal rate of 5% or less (almost no effect)); herbicidal effect on blackgrass (J) (blackgrass [12]): 4 (Herbicidal rate of 70% or more and less than 90%); herbicidal effect on Italian ryegrass (K) (Italian ryegrass [10]; [14]): 4 (Herbicidal rate of 70% or more and less than 90%); herbicidal effect on windgrass (L) (windgrass; [14]): 3 (Herbicidal rate of 40% or more and less than 70%); herbicidal effect on velvetleaf (M) (velvetleaf [11]; [14]): 4 (Herbicidal rate of 70% or more and less than 90%)
